One assay has as its system Bacteria. The assay can be described thus: Preservation of a cooling lubricant emulsion, repeated weekly contamination with bacteria mixture. To be noted: maximum of 10 weeks; for Number of weeks in which the growth of microorganisms lay beneath the limiting values (bacteria <10^6 CFU/g): 0.05% (=500 ppm) BIT in cooling lubricant emulsion; for Number of weeks in which the growth of microorganisms remained below the limiting values (bacteria <10^6 CFU/g): 0.18% (=1800 ppm) OPP in cooling lubricant emulsion. The format is cell-based. On the procedure: (§1) For this purpose, preserved samples of the cooling lubricant emulsion were repeatedly exposed in a weekly cycle to microbiological contamination with the following microorganisms:
(§2) The bacteria mixture was added in each case separately from the yeasts/molds. The maximum experimental time was 10 weeks (=10 contaminations/inoculation cycles), provided that the weekly cell count determination (in each case 7 days after the contamination) was kept within the following limiting values:
(§3) bacteria <10^6 CFU/g yeasts/molds <10^3-4 CFU/g
(§4) The experiment was terminated when said values were exceeded twice in succession.

Another assay concerns Molds. The assay can be described thus: Preservation of a cooling lubricant emulsion, repeated weekly contamination with molds. Type of assay: cell-based, Acremonium strictum, Fusarium solani, Geotrichum candidum. To be noted: maximum of 10 weeks; for Number of weeks in which the growth of microorganisms lay beneath the limiting values (molds <10^3-4 CFU/g): 0.05% (=500 ppm) BIT in cooling lubricant emulsion; for Number of weeks in which the growth of microorganisms remained below the limiting values (molds <10^3-4 CFU/g): 0.18% (=1800 ppm) OPP in cooling lubricant emulsion. The procedure: as §1, §2, §3, §4

In the next assay the test system is Yeasts. The assay can be described thus: Preservation of a cooling lubricant emulsion, repeated weekly contamination with yeasts. Type of assay: cell-based, Rhodotorula rubra. To be noted: maximum of 10 weeks; for Number of weeks in which the growth of microorganisms lay beneath the limiting values (yeasts <10^3-4 CFU/g): 0.05% (=500 ppm) BIT in cooling lubricant emulsion; for Number of weeks in which the growth of microorganisms remained below the limiting values (yeasts <10^3-4 CFU/g): 0.18% (=1800 ppm) OPP in cooling lubricant emulsion. The procedure:
as §1, §2, §3, §4

The structures appear in SMILES notation.

On to `O=c1[nH]sc2ccccc12` [BIT, benzisothiazolinone], for which the entries for the “Number of weeks in which the growth of microorganisms lay beneath the limiting values (bacteria <10^6 CFU/g)” value with Bacteria and in the assay with Bacteria (listed as benzisothiazolinone) were 1 week weeks and 1 week (of a maximum of 10 weeks), respectively. The “Number of weeks in which the growth of microorganisms lay beneath the limiting values (molds <10^3-4 CFU/g)” value in the assay with Molds is 1 week weeks; with Molds (listed as benzisothiazolinone), 1 week (of a maximum of 10 weeks). Also, the “Number of weeks in which the growth of microorganisms lay beneath the limiting values (yeasts <10^3-4 CFU/g)” value in the assay on Yeasts is 7 weeks; with Yeasts (listed as benzisothiazolinone), 7 weeks (of a maximum of 10 weeks).
Consider `Oc1ccccc1-c1ccccc1` [OPP, o-phenylphenol], for which the “Number of weeks in which the growth of microorganisms remained below the limiting values (bacteria <10^6 CFU/g)” value is 2 weeks with Bacteria and 2 weeks (of a maximum of 10 weeks) in the assay on Bacteria (listed as o-phenylphenol). The “Number of weeks in which the growth of microorganisms remained below the limiting values (molds <10^3-4 CFU/g)” value with Molds is given as 10 weeks; in the assay with Molds (listed as o-phenylphenol) it was 10 weeks (of a maximum of 10 weeks). The “Number of weeks in which the growth of microorganisms remained below the limiting values (yeasts <10^3-4 CFU/g)” value with Yeasts is listed as 10 weeks; in the assay on Yeasts (listed as o-phenylphenol), 10 weeks (of a maximum of 10 weeks).

The record behind these values is patent US20100264359A1, “BIOCIDAL MIXTURES” (LANXESS DEUTSCHLAND GMBH, priority 2007, published 2010).
